Reference: PubChem BioAssay AID1963827 (Molecular Pharmacology Branch, DTP, NCI, 2024)
pIC50: −log10 of the molar value.

Tested on: 994946-033-R-J1-PDC complex spheroid viability
Test: Anticancer human tumor 994946-033-R-J1-PDC patient-derived melanoma cell line growth inhibition [POLQ]
Conditions: for pIC50: curve of first compound; for viability, T/C: stronger effect = lower value
In short: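 Three-cell-type spheroids modelling solid tumor plus stroma served as the readout system; POL inhibitors were tested individually and in combination, concentration ranges set by clinical Cmax where known.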

[1] = second compound 0.0316 µM, first compound 0.0316 µM
[2] = second compound 0.0316 µM, first compound 0.1 µM
[3] = second compound 0.0316 µM, first compound 0.316 µM
[4] = second compound 0.0316 µM, first compound 1 µM
[5] = second compound 0.0316 µM, first compound 3.16 µM
[6] = second compound 0.0316 µM, first compound 10 µM
[7] = second compound 0.1 µM, first compound 0.0316 µM
[8] = second compound 0.1 µM, first compound 0.1 µM
[9] = second compound 0.1 µM, first compound 0.316 µM
[10] = second compound 0.1 µM, first compound 1 µM
[11] = second compound 0.1 µM, first compound 3.16 µM
[12] = second compound 0.1 µM, first compound 10 µM
[13] = second compound 0.316 µM, first compound 0.0316 µM
[14] = second compound 0.316 µM, first compound 0.1 µM
[15] = second compound 0.316 µM, first compound 0.316 µM
[16] = second compound 0.316 µM, first compound 1 µM
[17] = second compound 0.316 µM, first compound 3.16 µM
[18] = second compound 0.316 µM, first compound 10 µM
[19] = second compound 1 µM, first compound 0.0316 µM
[20] = second compound 1 µM, first compound 0.1 µM
[21] = second compound 1 µM, first compound 0.316 µM
[22] = second compound 1 µM, first compound 1 µM
[23] = second compound 1 µM, first compound 3.16 µM
[24] = second compound 1 µM, first compound 10 µM
[25] = second compound 3.16 µM, first compound 0.0316 µM
[26] = second compound 3.16 µM, first compound 0.1 µM
[27] = second compound 3.16 µM, first compound 0.316 µM
[28] = second compound 3.16 µM, first compound 1 µM
[29] = second compound 3.16 µM, first compound 3.16 µM
[30] = second compound 3.16 µM, first compound 10 µM
[31] = second compound 10 µM, first compound 0.0316 µM
[32] = second compound 10 µM, first compound 0.1 µM
[33] = second compound 10 µM, first compound 0.316 µM
[34] = second compound 10 µM, first compound 1 µM
[35] = second compound 10 µM, first compound 3.16 µM
[36] = second compound 10 µM, first compound 10 µM
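Note: spheroids exposed to drugs for 7 days.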
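Throughout, for viability, T/C: 100% = DMSO vehicle treated spheroids.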

Compound: CCc1cc2c(N3CCc4c(cc(Cn5ccnc5)cc4-c4cn(C)nc4C(F)(F)F)C3=O)cc(C)nc2c(OC)n1 + COC1C(OC(N)=O)C(O)C(Oc2ccc3c(O)c(NC(=O)c4ccc(O)c(CC=C(C)C)c4)c(=O)oc3c2C)OC1(C)C
- pIC50 (second compound 0.0316 µM): < 5.00
- pIC50 (second compound 0.1 µM): < 5.00
- pIC50 (second compound 0.316 µM): < 5.00
- pIC50 (second compound 1 µM): < 5.00
- pIC50 (second compound 3.16 µM): < 5.00
- pIC50 (second compound 10 µM): < 5.00
- viability, T/C [1]: 105%
- viability, T/C [2]: 86.1%
- viability, T/C [3]: 89.6%
- viability, T/C [4]: 83%
- viability, T/C [5]: 73.4%
- viability, T/C [6]: 64%
- viability, T/C [7]: 83.5%
- viability, T/C [8]: 71.5%
- viability, T/C [9]: 75.1%
- viability, T/C [10]: 86.9%
- viability, T/C [11]: 83.2%
- viability, T/C [12]: 75.1%
- viability, T/C [13]: 111%
- viability, T/C [14]: 90.2%
- viability, T/C [15]: 86.1%
- viability, T/C [16]: 51.9%
- viability, T/C [17]: 54%
- viability, T/C [18]: 70.5%
- viability, T/C [19]: 100%
- viability, T/C [20]: 71.3%
- viability, T/C [21]: 86.9%
- viability, T/C [22]: 82.2%
- viability, T/C [23]: 88.9%
- viability, T/C [24]: 91%
- viability, T/C [25]: 66%
- viability, T/C [26]: 100%
- viability, T/C [27]: 80.8%
- viability, T/C [28]: 78.2%
- viability, T/C [29]: 73.1%
- viability, T/C [30]: 63.8%
- viability, T/C [31]: 68.1%
- viability, T/C [32]: 93.4%
- viability, T/C [33]: 64.6%
- viability, T/C [34]: 82.2%
- viability, T/C [35]: 51.1%
- viability, T/C [36]: 69.9%

Compound: Nc1ccn(C2OC(CO)C(O)C2(F)F)c(=O)n1 (stereo unspecified) + Cc1cccc(N(C)C(=O)C2C(O)CCN2c2nc(C)cc(C(F)(F)F)c2C#N)c1
- pIC50 (second compound 0.0316 µM): > 7.50
- pIC50 (second compound 0.1 µM): > 7.50
- pIC50 (second compound 0.316 µM): > 7.50
- pIC50 (second compound 1 µM): > 7.50
- pIC50 (second compound 3.16 µM): > 7.50
- pIC50 (second compound 10 µM): > 7.50
- viability, T/C [1]: 26.7%
- viability, T/C [2]: 6.28%
- viability, T/C [3]: 4.88%
- viability, T/C [4]: 6.63%
- viability, T/C [5]: 3.54%
- viability, T/C [6]: 2.78%
- viability, T/C [7]: 49.3%
- viability, T/C [8]: 5.24%
- viability, T/C [9]: 5.13%
- viability, T/C [10]: 4.71%
- viability, T/C [11]: 4.54%
- viability, T/C [12]: 2.88%
- viability, T/C [13]: 24.7%
- viability, T/C [14]: 5.51%
- viability, T/C [15]: 5.07%
- viability, T/C [16]: 4.92%
- viability, T/C [17]: 4.06%
- viability, T/C [18]: 1.82%
- viability, T/C [19]: 23.1%
- viability, T/C [20]: 7.5%
- viability, T/C [21]: 4.98%
- viability, T/C [22]: 4.8%
- viability, T/C [23]: 4.33%
- viability, T/C [24]: 2.48%
- viability, T/C [25]: 39.7%
- viability, T/C [26]: 6.77%
- viability, T/C [27]: 4.52%
- viability, T/C [28]: 5.28%
- viability, T/C [29]: 4.61%
- viability, T/C [30]: 2.97%
- viability, T/C [31]: 48.6%
- viability, T/C [32]: 13.3%
- viability, T/C [33]: 6.55%
- viability, T/C [34]: 5.55%
- viability, T/C [35]: 5.13%
- viability, T/C [36]: 1.86%

Compound: CC[C@@]1(O)C(=O)OCc2c1cc1n(c2=O)Cc2cc3c(CN(C)C)c(O)ccc3nc2-1 + COC1C(OC(N)=O)C(O)C(Oc2ccc3c(O)c(NC(=O)c4ccc(O)c(CC=C(C)C)c4)c(=O)oc3c2C)OC1(C)C
- pIC50 (second compound 0.0316 µM): 7.67
- pIC50 (second compound 0.1 µM): 7.70
- pIC50 (second compound 0.316 µM): 7.67
- pIC50 (second compound 1 µM): 7.69
- pIC50 (second compound 3.16 µM): 7.75
- pIC50 (second compound 10 µM): 7.69
- viability, T/C (second compound 0.0316 µM, first compound 0.000316 µM): 107%
- viability, T/C (second compound 0.0316 µM, first compound 0.001 µM): 69.1%
- viability, T/C (second compound 0.0316 µM, first compound 0.00316 µM): 117%
- viability, T/C (second compound 0.0316 µM, first compound 0.01 µM): 77.8%
- viability, T/C [1]: 34.3%
- viability, T/C [2]: 7.91%
- viability, T/C (second compound 0.1 µM, first compound 0.000316 µM): 91.4%
- viability, T/C (second compound 0.1 µM, first compound 0.001 µM): 101%
- viability, T/C (second compound 0.1 µM, first compound 0.00316 µM): 109%
- viability, T/C (second compound 0.1 µM, first compound 0.01 µM): 79.2%
- viability, T/C [7]: 29.4%
- viability, T/C [8]: 8%
- viability, T/C (second compound 0.316 µM, first compound 0.000316 µM): 96.6%
- viability, T/C (second compound 0.316 µM, first compound 0.001 µM): 99.6%
- viability, T/C (second compound 0.316 µM, first compound 0.00316 µM): 91.3%
- viability, T/C (second compound 0.316 µM, first compound 0.01 µM): 86%
- viability, T/C [13]: 31.5%
- viability, T/C [14]: 11.3%
- viability, T/C (second compound 1 µM, first compound 0.000316 µM): 118%
- viability, T/C (second compound 1 µM, first compound 0.001 µM): 107%
- viability, T/C (second compound 1 µM, first compound 0.00316 µM): 100%
- viability, T/C (second compound 1 µM, first compound 0.01 µM): 81.5%
- viability, T/C [19]: 30.4%
- viability, T/C [20]: 15.1%
- viability, T/C (second compound 3.16 µM, first compound 0.000316 µM): 92.7%
- viability, T/C (second compound 3.16 µM, first compound 0.001 µM): 86.5%
- viability, T/C (second compound 3.16 µM, first compound 0.00316 µM): 77%
- viability, T/C (second compound 3.16 µM, first compound 0.01 µM): 73.1%
- viability, T/C [25]: 28%
- viability, T/C [26]: 10.2%
- viability, T/C (second compound 10 µM, first compound 0.000316 µM): 85.5%
- viability, T/C (second compound 10 µM, first compound 0.001 µM): 86.9%
- viability, T/C (second compound 10 µM, first compound 0.00316 µM): 85.4%
- viability, T/C (second compound 10 µM, first compound 0.01 µM): 81%
- viability, T/C [31]: 30.3%
- viability, T/C [32]: 8.24%
